In patent US20050176755A1, “Aza-bridged-bicyclic amino acid derivatives as alpha4 integrin antagonists” (priority 2003, published 2005):
Where two headings read alike, the source gives them in different places.

How the values were obtained:
human α4β7 = target: T1, human α4β7 (Homo sapiens, UniProt P13612+P26010); test: α4β7-K562 Cell Adhesion Assay (α4β7 Mediated Adhesion/VCAM-1); format: cell-based
T1 construct: expressed in transfected cells
T1 sequence (P13612 34-1032): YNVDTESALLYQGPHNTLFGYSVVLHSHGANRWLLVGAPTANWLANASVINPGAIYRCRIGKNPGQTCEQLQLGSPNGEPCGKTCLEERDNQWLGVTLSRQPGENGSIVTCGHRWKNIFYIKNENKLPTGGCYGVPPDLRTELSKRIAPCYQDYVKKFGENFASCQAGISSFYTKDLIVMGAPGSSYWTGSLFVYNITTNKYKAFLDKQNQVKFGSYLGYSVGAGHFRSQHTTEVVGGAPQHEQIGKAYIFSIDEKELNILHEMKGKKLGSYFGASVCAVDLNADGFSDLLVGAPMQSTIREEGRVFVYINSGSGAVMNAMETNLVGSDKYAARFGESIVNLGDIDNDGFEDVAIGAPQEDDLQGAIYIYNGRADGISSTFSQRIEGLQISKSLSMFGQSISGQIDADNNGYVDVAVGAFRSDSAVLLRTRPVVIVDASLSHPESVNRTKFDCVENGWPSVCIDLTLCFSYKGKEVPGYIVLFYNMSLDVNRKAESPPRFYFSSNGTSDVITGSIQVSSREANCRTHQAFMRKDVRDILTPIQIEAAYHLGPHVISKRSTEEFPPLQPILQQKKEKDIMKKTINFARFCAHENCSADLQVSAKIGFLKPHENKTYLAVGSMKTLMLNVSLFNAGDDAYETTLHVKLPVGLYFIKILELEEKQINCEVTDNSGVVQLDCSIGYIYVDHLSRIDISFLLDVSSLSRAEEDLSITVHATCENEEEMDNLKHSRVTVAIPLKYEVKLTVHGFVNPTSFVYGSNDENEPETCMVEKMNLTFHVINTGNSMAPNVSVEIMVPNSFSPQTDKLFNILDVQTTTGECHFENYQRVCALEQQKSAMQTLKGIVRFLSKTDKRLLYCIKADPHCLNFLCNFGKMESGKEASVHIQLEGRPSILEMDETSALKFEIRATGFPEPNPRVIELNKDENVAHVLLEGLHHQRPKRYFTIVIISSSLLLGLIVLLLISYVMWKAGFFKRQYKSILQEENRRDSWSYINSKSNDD
T1 sequence (P26010 20-798): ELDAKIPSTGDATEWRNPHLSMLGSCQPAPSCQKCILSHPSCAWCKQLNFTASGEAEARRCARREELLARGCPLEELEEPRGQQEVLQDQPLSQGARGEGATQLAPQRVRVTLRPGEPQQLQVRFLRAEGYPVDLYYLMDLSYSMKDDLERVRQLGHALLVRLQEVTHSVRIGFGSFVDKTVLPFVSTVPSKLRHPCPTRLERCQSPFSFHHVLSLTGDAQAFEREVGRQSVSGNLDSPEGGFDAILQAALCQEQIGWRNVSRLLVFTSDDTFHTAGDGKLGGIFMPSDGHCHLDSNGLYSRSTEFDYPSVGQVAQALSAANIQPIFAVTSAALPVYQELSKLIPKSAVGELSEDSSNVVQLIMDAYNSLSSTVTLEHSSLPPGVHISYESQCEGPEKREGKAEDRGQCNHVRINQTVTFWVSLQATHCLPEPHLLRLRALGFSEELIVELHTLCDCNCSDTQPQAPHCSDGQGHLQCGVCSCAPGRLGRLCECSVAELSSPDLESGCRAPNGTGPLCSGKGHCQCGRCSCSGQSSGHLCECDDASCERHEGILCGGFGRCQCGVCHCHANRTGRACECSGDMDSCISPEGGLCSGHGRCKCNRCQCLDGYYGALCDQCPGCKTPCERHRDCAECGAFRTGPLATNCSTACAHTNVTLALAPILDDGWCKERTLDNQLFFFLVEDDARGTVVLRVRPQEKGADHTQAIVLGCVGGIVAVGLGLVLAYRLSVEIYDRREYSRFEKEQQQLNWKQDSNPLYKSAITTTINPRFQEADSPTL
Description: (§1) α4β7-K562 Cell Adhesion Assay (α4β7 Mediated Adhesion/VCAM-1) Immulon 96 well plates (Dynex) were coated with 100 μL recombinant hVCAM-1 at 4.0 μg/mL in 0.05 M NaCO3 buffer pH 9.0 overnight at 4° C. (R&D Systems). Plates were washed 3 times in PBS with 1% BSA and blocked for 1 h @room temperature in this buffer. PBS was removed and compounds to be tested (50 μL) were added at 2× concentration. A stable cell line of K562 cells expressing human α4β7, (50 μL at 2×10^6/mL) labeled with 5 μM Calcein AM (Molecular Probes) for 1 h at 37° C., were added to each well and allowed to adhere for 1 h at room temperature. Plates were washed 3× in PBS+1% BSA and cells were lysed for 15 minutes in 100 μL of 1 M Tris pH 8.0 with 1% SDS. The plate was read at 485 nm excitation and 530 nm emission.

α4β1 [1] = target: T2, α4β1 (Homo sapiens, UniProt P05556+P13612); test: Ramos Cell Adhesion Assay (α4β1 Mediated Adhesion/VCAM-1); format: cell-based; design: Ramos Cell Adhesion Assay (α4β1 Mediated Adhesion/VCAM-1); endogenous in cells; host or cells: Ramos cells
Description: as §1, with “Ramos” for “α4β7-K562”, “(α4β1” for “(α4β7”, “@ room” for “@room”, “Ramos cells,” for “A stable cell line of K562 cells expressing human α4β7,”

α4β1 [2] = target: T2, α4β1; conditions: background, literature; cited from earlier work
[3] = tested on: heterotopic heart allograft; conditions: hyperlipidemic rabbit; cited from earlier work
[4] = tested on: oxazolone-induced contact hypersensitivity; conditions: mouse, 6 mg/kg, sc; cited from earlier work
[5] = K562 cells expressing human α4β7, adhesion to recombinant hVCAM-1, read-out: α4β7 IC50
[6] = Ramos cells, adhesion to recombinant hVCAM-1, read-out: α4β1 IC50

T2 sequence (P05556 21-798, one chain of several): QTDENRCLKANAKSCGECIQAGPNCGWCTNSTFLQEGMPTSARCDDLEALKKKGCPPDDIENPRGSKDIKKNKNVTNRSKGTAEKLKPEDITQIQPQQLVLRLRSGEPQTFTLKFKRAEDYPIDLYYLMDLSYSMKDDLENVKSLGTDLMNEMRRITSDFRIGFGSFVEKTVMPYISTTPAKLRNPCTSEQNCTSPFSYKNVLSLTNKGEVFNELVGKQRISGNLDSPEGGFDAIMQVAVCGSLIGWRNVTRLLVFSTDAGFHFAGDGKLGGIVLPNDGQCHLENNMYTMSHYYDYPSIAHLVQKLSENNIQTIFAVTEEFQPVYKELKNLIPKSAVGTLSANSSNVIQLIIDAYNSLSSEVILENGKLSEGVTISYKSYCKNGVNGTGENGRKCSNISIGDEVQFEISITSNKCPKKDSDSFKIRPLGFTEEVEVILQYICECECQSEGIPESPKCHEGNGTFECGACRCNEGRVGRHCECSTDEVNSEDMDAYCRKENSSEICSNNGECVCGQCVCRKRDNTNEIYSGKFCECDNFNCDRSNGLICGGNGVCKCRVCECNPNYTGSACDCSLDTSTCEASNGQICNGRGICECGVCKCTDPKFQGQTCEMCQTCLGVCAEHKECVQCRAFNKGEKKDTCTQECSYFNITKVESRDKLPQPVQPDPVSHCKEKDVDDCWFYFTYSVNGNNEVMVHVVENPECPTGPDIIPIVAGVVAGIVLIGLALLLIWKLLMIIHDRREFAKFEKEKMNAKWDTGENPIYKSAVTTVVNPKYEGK

Row | Molecule | IC50 (human α4β7; [5]) | IC50 (α4β1 [1]; [6]) | other results
1 | COCCC(=O)N1C2CCC(CC2)C1C(=O)NC(Cc1ccc(NC(=O)c2c(Cl)cncc2Cl)cc1)C(=O)O (centres unmarked) [Cpd 12] | 117 nM | 8 nM | 
2 | O=C(O)C(Cc1ccc(OC(=O)N2CCOCC2)cc1)NC(=O)C1C2CCC(CC2)N1C(=O)CCO (centres unmarked) [Cpd 10] | 896 nM | > 1000 nM | 
3 | NCCC(=O)N1C2CCC(CC2)C1C(=O)NC(Cc1ccc(NC(=O)c2c(Cl)cncc2Cl)cc1)C(=O)O (centres unmarked) [Cpd 15] | 60 nM | 29 nM | 
4 | O=C(Nc1ccc(CC(NC(=O)C2C3CCC(CC3)N2C(=O)CCO)C(=O)O)cc1)c1c(Cl)cccc1Cl (centres unmarked) [Cpd 9] | 67 nM | 135 nM | 
5 | O=C(Nc1ccc(CC(NC(=O)C2C3CCC(CC3)N2C(=O)CCc2ccc3c(c2)OCO3)C(=O)O)cc1)c1c(Cl)cccc1Cl (centres unmarked) [Cpd 22] | 35 nM | 45 nM | 
6 | CC(C)(O)CCCC(=O)N1C2CCC(CC2)C1C(=O)NC(Cc1ccc(NC(=O)c2c(Cl)cncc2Cl)cc1)C(=O)O (centres unmarked) [Cpd 11] | 47 nM | 14 nM | 
7 | O=C(Nc1ccc(CC(NC(=O)C2C3CCC(CC3)N2C(=O)CS(=O)(=O)c2ccccc2)C(=O)O)cc1)c1c(Cl)cncc1Cl (centres unmarked) [Cpd 6] | 27 nM | 15 nM | 
8 | Phenylacetyl-Leu-Asp-Phe-D-Pro-NH2 |  |  | IC50 (α4β1 [2]): 2000 nM; efficacy in heart allograft model [3]: effective; efficacy in oxazolone-induced contact hypersensitivity [4]: efficacy similar to the α4 antibody PS/2
9 | O=C(Nc1ccc(CC(NC(=O)C2C3CCC(CC3)N2C(=O)CSc2ccncc2)C(=O)O)cc1)c1c(Cl)cncc1Cl (centres unmarked) [Cpd 3] | 6 nM | 6 nM | 
10 | COCCC(=O)N1C2CCC(CC2)C1C(=O)NC(Cc1ccc(OC(=O)N(C)C)cc1)C(=O)O (centres unmarked) [Cpd 14] |  |  | IC50 (human α4β7): 304 nM; IC50 (α4β1 [1]): 1270 nM
11 | CS(=O)(=O)CC(=O)N1C2CCC(CC2)C1C(=O)NC(Cc1ccc(NC(=O)c2c(Cl)cncc2Cl)cc1)C(=O)O (centres unmarked) [Cpd 5] | 32 nM | 17 nM | 
12 | O=C(Nc1ccc(CC(NC(=O)C2C3CCC(CC3)N2C(=O)CSc2ccccn2)C(=O)O)cc1)c1c(Cl)cncc1Cl (centres unmarked) [Cpd 1] | 10 nM | 9 nM | 
13 | O=C(O)C(Cc1ccc(OC(=O)N2CCOCC2)cc1)NC(=O)C1C2CCC(CC2)N1C(=O)CCc1ccc2c(c1)OCO2 (centres unmarked) [Cpd 23] | 277 nM | 217 nM | 
14 | O=C(Nc1ccc(CC(NC(=O)C2C3CCC(CC3)N2C(=O)CCO)C(=O)O)cc1)c1c(Cl)cncc1Cl (centres unmarked) [Cpd 8] | 6 nM | 4 nM | 
15 | O=C(Nc1ccc(CC(NC(=O)C2C3CCC(CC3)N2C(=O)CSc2ccc(F)cc2)C(=O)O)cc1)c1c(Cl)cncc1Cl (centres unmarked) [Cpd 2] | 20 nM | 6 nM | 
16 | CN(C)CCC(=O)N1C2CCC(CC2)C1C(=O)NC(Cc1ccc(NC(=O)c2c(Cl)cncc2Cl)cc1)C(=O)O (centres unmarked) [Cpd 16] | 177 nM | 23 nM | 
17 | COCCC(=O)Nc1ccc(CC(NC(=O)C2C3CCC(CC3)N2C(=O)CCOC)C(=O)O)cc1 (centres unmarked) [Cpd 13] | 2370 nM | > 1000 nM | 
